Source: US8134015B2, “Compound inhibiting in vivo phosphorous transport and medicine containing the same” (Kyowa Hakko Kirin Co., Ltd., priority 2003, dated 2012)

The compounds below were run against T1, rat NaPi-2b (Rattus norvegicus, UniProt Q9JJ09) (assay: Sodium-dependent phosphate uptake of Xenopus oocytes which expressed NaPi-2b (32P)). Details: Xenopus oocytes expressing rat NaPi-2b, 32P radioactive phosphorus; read-out: IC50 (phosphate uptake inhibitory activity).
T1 construct: expressed in transfected cells; host or cells: Xenopus oocytes injected with cRNA
T1 sequence (Q9JJ09 1-695): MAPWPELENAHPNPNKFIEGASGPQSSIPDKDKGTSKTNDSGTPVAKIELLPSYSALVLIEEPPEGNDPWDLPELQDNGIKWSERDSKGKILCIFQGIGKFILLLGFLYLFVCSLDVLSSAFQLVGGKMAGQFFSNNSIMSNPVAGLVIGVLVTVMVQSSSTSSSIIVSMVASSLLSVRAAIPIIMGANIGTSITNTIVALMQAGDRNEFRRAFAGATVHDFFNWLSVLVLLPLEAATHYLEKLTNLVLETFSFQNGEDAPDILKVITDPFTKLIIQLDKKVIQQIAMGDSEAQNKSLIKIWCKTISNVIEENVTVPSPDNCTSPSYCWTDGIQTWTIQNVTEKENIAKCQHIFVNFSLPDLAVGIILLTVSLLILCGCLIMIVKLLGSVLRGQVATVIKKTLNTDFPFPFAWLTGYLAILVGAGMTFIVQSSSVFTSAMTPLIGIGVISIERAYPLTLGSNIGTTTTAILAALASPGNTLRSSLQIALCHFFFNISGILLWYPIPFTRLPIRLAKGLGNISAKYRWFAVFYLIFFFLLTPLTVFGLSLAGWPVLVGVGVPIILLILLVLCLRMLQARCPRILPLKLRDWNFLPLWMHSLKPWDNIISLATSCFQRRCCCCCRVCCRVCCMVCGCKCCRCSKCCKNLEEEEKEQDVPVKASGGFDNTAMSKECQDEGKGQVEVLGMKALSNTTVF
Type: cell-based
Method in brief: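 Oocytes injected with rat NaPi-2b cRNA, cultured 2 d, then 32P uptake measured with compound. Values: % inhibition at 300 and 100 μM, both from one inhibition curve.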

Compound | IC50 [µM]
Cc1ccc(/C=N/NC(=O)c2cc(N3CCCC3)ccc2NC(=O)c2cccc(CSCCO)c2)cc1C [Compound 919, N-[2-(3,4-Dimethyl-benzylidene-hydrazinocarbonyl)-4-pyrrolidin-1-yl-phenyl]-3-(2-hydroxy-ethylsulfanylmethyl)-benzamide] | 0.31
O=C(Nc1ccc(N2CCCC2)cc1C(=O)N/N=C/c1ccc(Cl)c(C(F)(F)F)c1)c1cccc(CSCCO)c1 [Compound 920, N-[2-(4-Chloro-3-trifluoromethyl-benzylidene-hydrazinocarbonyl)-4-pyrrolidin-1-yl-phenyl]-3-(2-hydroxy-ethylsulfanylmethyl)-benzamide] | < 1
COc1ccc(/C=N/NC(=O)c2cc(N3CCCC3)ccc2NC(=O)c2cccc(CSCCO)c2)cc1 [Compound 921, 3-(2-Hydroxy-ethylsulfanylmethyl)-N-[2-(4-methoxy-benzylidene-hydrazinocarbonyl)-4-pyrrolidin-1-yl-phenyl]-benzamide] | 1.22
CCN(CC)CCN(C)Cc1cccc(C(=O)Nc2ccc(N3CCCN(C)CC3)cc2C(=O)N/N=C/c2ccc(Cl)c(C(F)(F)F)c2)c1 [Compound 922, N-[2-(4-Chloro-3-trifluoromethyl-benzylidene-hydrazinocarbonyl)-4-(4-methyl-[1,4]diazepan-1-yl)-phenyl]-3-{[(2-diethylamino-ethyl)-methyl-amino]-methyl}-benzamide] | 2.89
O=C(Nc1ccc(N2CCN(CCO)CC2)cc1C(=O)N/N=C/c1ccc(Cl)c(C(F)(F)F)c1)c1cccc(CSCCO)c1 [Compound 923, N-{2-(4-Chloro-3-trifluoromethyl-benzylidene-hydrazinocarbonyl)-4-[4-(2-hydroxy-ethyl)-piperazin-1-yl]-phenyl}-3-(2-hydroxy-ethylsulfanylmethyl)-benzamide] | 18.8
CCN(CC)CCN(C)Cc1cccc(C(=O)Nc2ccc(N3CCN(CCO)CC3)cc2C(=O)N/N=C/c2ccc(Cl)c(C(F)(F)F)c2)c1 [Compound 924, N-{2-(4-Chloro-3-trifluoromethyl-benzylidene-hydrazinocarbonyl)-4-[4-(2-hydroxy-ethyl)-piperazin-1-yl]-phenyl}-3-{[(2-diethylamino-ethyl)-methyl-amino]-methyl}-benzamide] | 40.2
O=C(Nc1ccc(N2CCCC(C(=O)O)C2)cc1C(=O)N/N=C/c1ccc(Cl)c(C(F)(F)F)c1)c1cccc(CSCCO)c1 (stereo not shown) [Compound 925, 1-{3-(4-Chloro-3-trifluoromethyl-benzylidene-hydrazinocarbonyl)-4-[3-(2-hydroxy-ethylsulfanylmethyl)-benzoylamino]-phenyl}-piperidine-3-carboxylic acid] | 25.5
Cc1ccc(/C=N/NC(=O)c2cc(N3CCSCC3)ccc2NC(=O)c2cccc(CSCCO)c2)cc1C [Compound 926, N-[2-(3,4-Dimethyl-benzylidene-hydrazinocarbonyl)-4-thiomorpholin-4-yl-phenyl]-3-(2-hydroxy-ethylsulfanylmethyl)-benzamide] | < 1
O=C(Nc1ccc(N2CCSCC2)cc1C(=O)N/N=C/c1ccc(Cl)c(C(F)(F)F)c1)c1cccc(CSCCO)c1 [Compound 927, N-[2-(4-Chloro-3-trifluoromethyl-benzylidene-hydrazinocarbonyl)-4-thiomorpholin-4-yl-phenyl]-3-(2-hydroxy-ethylsulfanylmethyl)-benzamide] | < 1
COc1ccc(/C=N/NC(=O)c2cc(N3CCSCC3)ccc2NC(=O)c2cccc(CSCCO)c2)cc1 [Compound 928, 3-(2-Hydroxy-ethylsulfanylmethyl)-N-[2-(4-methoxy-benzylidene-hydrazinocarbonyl)-4-thiomorpholin-4-yl-phenyl]-benzamide] | < 1
CCN(CC)CCN(C)Cc1cccc(C(=O)Nc2ccc(N3CCSCC3)cc2C(=O)N/N=C/c2ccc(Cl)c(C(F)(F)F)c2)c1 [Compound 929, N-[2-(4-Chloro-3-trifluoromethyl-benzylidene-hydrazinocarbonyl)-4-thiomorpholin-4-yl-phenyl]-3-{[(2-diethylamino-ethyl)-methyl-amino]-methyl}-benzamide] | < 1
COc1ccc(C(=O)Nc2ccc(N3CCCCC3)cc2C(=O)N/N=C/c2ncc[nH]2)cc1OC [Compound 937, N-[2-(1H-Imidazol-2-ylmethylene-hydrazinocarbonyl)-4-piperidin-1-yl-phenyl]-3,4-dimethoxy-benzamide] | 137
COc1cc(/C=N/NC(=O)c2cc(N3CCCCC3)ccc2NC(=O)c2ccc(OC)c(OC)c2)ccc1O [Compound 938, N-[2-(4-Hydroxy-3-methoxy-benzylidene-hydrazinocarbonyl)-4-piperidin-1-yl-phenyl]-3,4-dimethoxy-benzamide] | 1.41
COc1ccc(C(=O)Nc2ccc(N3CCOCC3)cc2C(=O)N/N=C/c2ccc(C)c(C)c2)cc1OC [Compound 939, N-[2-(3,4-Dimethyl-benzylidene-hydrazinocarbonyl)-4-morpholin-4-yl-phenyl]-3,4-dimethoxy-benzamide] | < 3
COc1cc(/C=N/NC(=O)c2cc(N3CCOCC3)ccc2NC(=O)c2ccc(OC)c(OC)c2)ccc1O [Compound 940, N-[2-(4-Hydroxy-3-methoxy-benzylidene-hydrazinocarbonyl)-4-morpholin-4-yl-phenyl]-3,4-dimethoxy-benzamide] | 30.6
COc1ccc(/C=N/NC(=O)c2cc(N3CCOCC3)ccc2NC(=O)c2ccc(OC)c(OC)c2)cc1 [Compound 941, 3,4-Dimethoxy-N-[2-(4-methoxy-benzylidene-hydrazinocarbonyl)-4-morpholin-4-yl-phenyl]-benzamide] | 8.72
CC(O)CN(Cc1cccc(C(=O)Nc2ccc(N3CCCCC3)cc2C(=O)NN=Cc2ccc(Cl)c(C(F)(F)F)c2)c1)CC(C)O (stereo not shown) [Compound 942, 3-{[Bis-(2-hydroxy-propyl)-amino]-methyl}-N-[2-(4-chloro-3-trifluoromethyl-benzylidene-hydrazinocarbonyl)-4-piperidin-1-yl-phenyl]-benzamide] | 0.2
CCN(CC)CCOc1ccc(NC(=O)c2cccc(CN(CC(C)O)CC(C)O)c2)c(C(=O)NN=Cc2ccc(C)c(C)c2)c1 (stereo not shown) [Compound 943, 3-{[Bis-(2-hydroxy-propyl)-amino]-methyl}-N-[4-(2-diethylamino-ethoxy)-2-(3,4-dimethyl-benzylidene-hydrazinocarbonyl)-phenyl]-benzamide] | 10.6
Cc1ccc(/C=N/NC(=O)c2cc(N3CCCC3=O)ccc2NC(=O)c2cccc(CN(CC(C)O)CC(C)O)c2)cc1C (stereo not shown) [Compound 944, 3-{[Bis-(2-hydroxy-propyl)-amino]-methyl}-N-[2-(3,4-dimethyl-benzylidene-hydrazinocarbonyl)-4-(2-oxo-pyrrolidin-1-yl)-phenyl]-benzamide] | 12
CC(O)CN(Cc1cccc(C(=O)Nc2ccc(N3CCCC3=O)cc2C(=O)N/N=C/c2ccc(Cl)c(C(F)(F)F)c2)c1)CC(C)O (stereo not shown) [Compound 945, 3-{[Bis-(2-hydroxy-propyl)-amino]-methyl}-N-[2-(4-chloro-3-trifluoromethyl-benzylidene-hydrazinocarbonyl)-4-(2-oxo-pyrrolidin-1-yl)-phenyl]-benzamide] | 19.4

Same assay, conditions: phosphate uptake, oocytes expressing rat NaPi-2b; 300 μM, determined from inhibition curve

Compound | inhibition at 300 µM [%]
COc1ccc(/C=N/NC(=O)c2cc(Br)sc2NC(=O)c2cccc(CN(C)C)c2)cc1 [Compound 930, N-[5-Bromo-3-(4-methoxy-benzylidene-hydrazinocarbonyl)-thiophen-2-yl]-3-dimethylaminomethyl-benzamide] | 40.2
CCN(CC)CCN(C)Cc1cccc(C(=O)Nc2ccc(N3CCCN(C)CC3)cc2C(=O)N/N=C/c2ccc(OC)cc2)c1 [Compound 931, 3-{[(2-Diethylamino-ethyl)-methyl-amino]-methyl}-N-[2-(4-methoxy-benzylidene-hydrazinocarbonyl)-4-(4-methyl-[1,4]diazepan-1-yl)-phenyl]-benzamide] | 31.2
CN1CCCN(c2ccc3nc(-c4cccc(CSCCO)c4)n(/N=C/c4ccc(Cl)c(C(F)(F)F)c4)c(=O)c3c2)CC1 [Compound 932, 3-[(4-Chloro-3-trifluoromethyl-benzylidene)-amino]-2-[3-(2-hydroxy-ethylsulfanylmethyl)-phenyl]-6-(4-methyl-[1,4]diazepan-1-yl)-3 H-quinazolin-4-one] | 36.1
CCN(CC)CCN(C)Cc1cccc(-c2nc3ccc(N4CCCN(C)CC4)cc3c(=O)n2/N=C/c2ccc(OC)cc2)c1 [Compound 933, 2-(3-{[(2-Diethylamino-ethyl)-methyl-amino]-methyl}-phenyl)-3-[(4-methoxy-benzylidene)-amino]-6-(4-methyl-[1,4]diazepan-1-yl)-3H-quinazolin-4-one] | 37.6
Cc1ccc(/C=N/NC(=O)c2cc(N3CCCC(C(=O)O)C3)ccc2NC(=O)c2cccc(CSCCO)c2)cc1C (stereo not shown) [Compound 934, 1-{3-(3,4-Dimethyl-benzylidene-hydrazinocarbonyl)-4-[3-(2-hydroxy-ethylsulfanylmethyl)-benzoylamino]-phenyl}-piperidine-3-carboxylic acid] | 39.3
